Several values for one entry are separate records, joined by “and”; a condition that tells them apart may be missing. Equal values may be shown once. Each block holds one compound with its values, some of them ahead of it.
System: 598228-144-R-J1-PDC complex spheroids, viability
Test: Anticancer human tumor 598228-144-R-J1-PDC patient-derived serous endometrial adenocarcinoma cell line growth inhibition [CLK]
Conditions: for viability, T/C: stronger effect = lower value
In short: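 Multi-cell-type spheroids combined patient-derived tumor cells with HUVEC endothelial cells and human mesenchymal stem cells. Paired agents were dosed in half-log steps down from about clinical Cmax, or from 10 microM where Cmax was unknown.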

[1] = curve of first compound, second compound 0.0316 µM
[2] = curve of first compound, second compound 0.1 µM
[3] = curve of first compound, second compound 0.316 µM
[4] = curve of first compound, second compound 1 µM
[5] = curve of first compound, second compound 3.16 µM
[6] = curve of first compound, second compound 10 µM
[7] = second compound 0.0316 µM, first compound 0.0316 µM
[8] = second compound 0.0316 µM, first compound 0.1 µM
[9] = second compound 0.0316 µM, first compound 0.316 µM
[10] = second compound 0.0316 µM, first compound 1 µM
[11] = second compound 0.0316 µM, first compound 3.16 µM
[12] = second compound 0.0316 µM, first compound 10 µM
[13] = second compound 0.1 µM, first compound 0.0316 µM
[14] = second compound 0.1 µM, first compound 0.1 µM
[15] = second compound 0.1 µM, first compound 0.316 µM
[16] = second compound 0.1 µM, first compound 1 µM
[17] = second compound 0.1 µM, first compound 3.16 µM
[18] = second compound 0.1 µM, first compound 10 µM
[19] = second compound 0.316 µM, first compound 0.0316 µM
[20] = second compound 0.316 µM, first compound 0.1 µM
[21] = second compound 0.316 µM, first compound 0.316 µM
[22] = second compound 0.316 µM, first compound 1 µM
[23] = second compound 0.316 µM, first compound 3.16 µM
[24] = second compound 0.316 µM, first compound 10 µM
[25] = second compound 1 µM, first compound 0.0316 µM
[26] = second compound 1 µM, first compound 0.1 µM
[27] = second compound 1 µM, first compound 0.316 µM
[28] = second compound 1 µM, first compound 1 µM
[29] = second compound 1 µM, first compound 3.16 µM
[30] = second compound 1 µM, first compound 10 µM
[31] = second compound 3.16 µM, first compound 0.0316 µM
[32] = second compound 3.16 µM, first compound 0.1 µM
[33] = second compound 3.16 µM, first compound 0.316 µM
[34] = second compound 3.16 µM, first compound 1 µM
[35] = second compound 3.16 µM, first compound 3.16 µM
[36] = second compound 3.16 µM, first compound 10 µM
[37] = second compound 10 µM, first compound 0.0316 µM
[38] = second compound 10 µM, first compound 0.1 µM
[39] = second compound 10 µM, first compound 0.316 µM
[40] = second compound 10 µM, first compound 1 µM
[41] = second compound 10 µM, first compound 3.16 µM
[42] = second compound 10 µM, first compound 10 µM
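Further: spheroids exposed to compounds for seven days before readout.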
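Wherever viability, T/C is given: 100% = DMSO vehicle control wells.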

Structure (SMILES): CC1COCCN1c1cc(C2(S(C)(=N)=O)CC2)nc(-c2ccnc3[nH]ccc23)n1 (stereo unspecified) + CN1CCN(c2cc(C(=O)Nc3cc4cc(-c5cnn(C)c5)ccc4cn3)ccn2)CC1
IC50 [1]: 6.13 µM
IC50 [2]: 3.01 µM
IC50 [3]: < 0.0316 µM
IC50 [4]: < 0.0316 µM
IC50 [5]: < 0.0316 µM
IC50 [6]: < 0.0316 µM
viability, T/C [7]: 126%
viability, T/C [8]: 125%
viability, T/C [9]: 105%
viability, T/C [10]: 102%
viability, T/C [11]: 63.5%
viability, T/C [12]: 38.3%
viability, T/C [13]: 127%
viability, T/C [14]: 122%
viability, T/C [15]: 110%
viability, T/C [16]: 89.1%
viability, T/C [17]: 46%
viability, T/C [18]: 28.6%
viability, T/C [19]: 17.1%
viability, T/C [20]: 16.4%
viability, T/C [21]: 17.9%
viability, T/C [22]: 14.8%
viability, T/C [23]: 16.3%
viability, T/C [24]: 13.3%
viability, T/C [25]: 1.37%
viability, T/C [26]: 1.72%
viability, T/C [27]: 2.93%
viability, T/C [28]: 1.07%
viability, T/C [29]: 2.89%
viability, T/C [30]: 7.44%
viability, T/C [31]: 1.86%
viability, T/C [32]: 3.02%
viability, T/C [33]: 2%
viability, T/C [34]: 1.65%
viability, T/C [35]: 3.13%
viability, T/C [36]: 7.42%
viability, T/C [37]: 1.07%
viability, T/C [38]: 1.83%
viability, T/C [39]: 2.32%
viability, T/C [40]: 0.91%
viability, T/C [41]: 2.14%
viability, T/C [42]: 3.43%

Structure (SMILES): COc1ccc([C@@H](O)c2cc(-c3ncnc4cc(N5CCOCC5)ccc34)c(F)cc2Cl)nn1 + CN1CCN(c2cc(C(=O)Nc3cc4cc(-c5cnn(C)c5)ccc4cn3)ccn2)CC1
IC50 [1]: 8.4 µM
IC50 [2]: 5.36 µM
IC50 [3]: < 0.0316 µM
IC50 [4]: < 0.0316 µM
IC50 [5]: < 0.0316 µM
IC50 [6]: < 0.0316 µM
viability, T/C [7]: 122%
viability, T/C [8]: 123%
viability, T/C [9]: 105%
viability, T/C [10]: 92.7%
viability, T/C [11]: 65.3%
viability, T/C [12]: 47.4%
viability, T/C [13]: 123%
viability, T/C [14]: 123%
viability, T/C [15]: 89%
viability, T/C [16]: 88.8%
viability, T/C [17]: 59.5%
viability, T/C [18]: 36.8%
viability, T/C [19]: 15.2%
viability, T/C [20]: 15.1%
viability, T/C [21]: 15.9%
viability, T/C [22]: 9.86%
viability, T/C [23]: 7.76%
viability, T/C [24]: 5.23%
viability, T/C [25]: 1.49%
viability, T/C [26]: 1.33%
viability, T/C [27]: 1.57%
viability, T/C [28]: 1.3%
viability, T/C [29]: 1.12%
viability, T/C [30]: 3.63%
viability, T/C [31]: 1.56%
viability, T/C [32]: 2.15%
viability, T/C [33]: 1.78%
viability, T/C [34]: 2.12%
viability, T/C [35]: 1.65%
viability, T/C [36]: 2.04%
viability, T/C [37]: 0.95%
viability, T/C [38]: 0.79%
viability, T/C [39]: 4.21%
viability, T/C [40]: 1.31%
viability, T/C [41]: 3.59%
viability, T/C [42]: 3.19%

IC50 (curve of compound): > 10 µM
Structure (SMILES): C#Cc1c(F)ccc2cc(O)cc(-c3ncc4c(N5CC6CCC(C5)N6)nc(OCC56CCCN5CC(F)C6)nc4c3F)c12 (stereo unspecified)
viability, T/C (compound 0.0316 µM): 99.8% and 98.6%
viability, T/C (compound 0.1 µM): 101% and 103%
viability, T/C (compound 0.316 µM): 108% and 112%
viability, T/C (compound 1 µM): 103% and 100%
viability, T/C (compound 3.16 µM): 102% and 103%
viability, T/C (compound 10 µM): 97.9% and 102%
